Test results published in patent US20090196912A1, “Pyridinylamines” (GPC Botech AG, priority 2004, published 2009).

Legend:
Assay in all cases: Generic kinase assay (33P-ATP, Myelin Basic Protein)
Type in all cases: biochemical
[1] = target: EGFR (Homo sapiens, UniProt P00533); details: class symbol: % inhibition at 10 μM or IC50
Experimental: (§1) In order to determine the inhibitory effect of the compounds of the subject invention on various target enzymes a generic kinase assay was established.
(§2) Reactions were performed in 96-Well U-bottom microtiter plates (Greiner Bio-One; Frickenhausen/Germany, Cat. No. 650161), hereinafter designated “Assay Plates”. 10 μl of a solution comprising 40 μM Myelin Basic Protein (Invitrogen; Carlsbad, Calif./USA; Cat. No. 13228-010) and 4 μM ATP in three-fold concentrated Reaction Buffer (60 mM Tris-HCl, pH 7.5; 30 mM MgCl2; 3 mM dithiothreitol) were added into each well of the Assay Plate. 10 μl of serial dilutions of the compounds of the subject invention, dissolved in 4% DMSO, were then added into each well, except for Positive Control. Wells (C+ wells) and Negative Control Wells (C− wells). 10 μl of 4% DMSO without compounds were added to C+ and C− wells. 10 μl of a 500 mM solution of EDTA in water was then added to C− wells. Then 10 μl of a solution containing 50 μCi/ml Adenosine 5′-[γ-^33P]triphosphate in water was added to each well. To start the reaction 10 μl of the kinase to be assayed was added to each well. The optimal amount of kinase in the assay was determined to be the amount which yields to a turn-over of about 10% of ATP. Assay Plates were incubated for one hour at room temperature. Then 10 μl of a 500 mM solution of EDTA in water was added to each well except C− wells. Samples were now ready for measurement.
(§3) Measurements were preformed in 96-Well MAPH-Filter Plates (Millipore; Billerica, Mass./United States; Cat. No. MAPHNOB50), hereinafter designated “Measurement Plates”. Measurement Plates were washed with 200 μl of a 0.75% H3PO4 solution per well. The H3PO4 solution was exhausted using a Millipore vacuum station. 60 μl of a 0.75% H3PO4 solution was then added into each well, followed by the transfer of 30 μl of each well from the Assay Plate into the corresponding wells of the Measurement Plate. The Measurement Plate was incubated for 30 minutes at room temperature. Thereafter each well was washed three times with 200 μl of a 0.75% H3PO4 solution using a Millipore vacuum station. 20 μl of scintillation liquid (Supermix Liquid Szintillator; Perkin Elmer, Wellesley. Mass./United States; Cat. No. 1200-439) was then added to each well of the Measurement Plate. The plate was sealed and stored for 30 minutes in the darkness before radioactivity was quantified in a MicroBeta Scintillation Counter (Perkin Elmer, Wellesley. Mass./United States).

[2] = target: c-kit (Homo sapiens, UniProt P10721); details: 1 h; class symbol: % inhibition at 10 μM or IC50; read-out: Inhibitory effect on target c-kit
Experimental: as §1, §2, §3

[3] = target: Abl (Homo sapiens, UniProt P00519); details: 1 h; class symbol: % inhibition at 10 μM or IC50; read-out: Inhibitory effect on target Abl
Experimental: as §1, §2, §3

[4] = target: p56Lck (Homo sapiens, UniProt P06239); details: class symbol: % inhibition at 10 μM or IC50; for inhibition at 10 µM: 1 h, read-out: Inhibitory effect on target p56Lck
Experimental: as §1, §2, §3

[5] = tested on: PDGFR; details: class symbol: % inhibition at 10 μM or IC50
Experimental: as §1, §2, §3

[6] = target: RICK (Homo sapiens, UniProt O43353); details: class symbol: % inhibition at 10 μM or IC50
Experimental: as §1, §2, §3

Sequence of c-kit (P10721 26-976): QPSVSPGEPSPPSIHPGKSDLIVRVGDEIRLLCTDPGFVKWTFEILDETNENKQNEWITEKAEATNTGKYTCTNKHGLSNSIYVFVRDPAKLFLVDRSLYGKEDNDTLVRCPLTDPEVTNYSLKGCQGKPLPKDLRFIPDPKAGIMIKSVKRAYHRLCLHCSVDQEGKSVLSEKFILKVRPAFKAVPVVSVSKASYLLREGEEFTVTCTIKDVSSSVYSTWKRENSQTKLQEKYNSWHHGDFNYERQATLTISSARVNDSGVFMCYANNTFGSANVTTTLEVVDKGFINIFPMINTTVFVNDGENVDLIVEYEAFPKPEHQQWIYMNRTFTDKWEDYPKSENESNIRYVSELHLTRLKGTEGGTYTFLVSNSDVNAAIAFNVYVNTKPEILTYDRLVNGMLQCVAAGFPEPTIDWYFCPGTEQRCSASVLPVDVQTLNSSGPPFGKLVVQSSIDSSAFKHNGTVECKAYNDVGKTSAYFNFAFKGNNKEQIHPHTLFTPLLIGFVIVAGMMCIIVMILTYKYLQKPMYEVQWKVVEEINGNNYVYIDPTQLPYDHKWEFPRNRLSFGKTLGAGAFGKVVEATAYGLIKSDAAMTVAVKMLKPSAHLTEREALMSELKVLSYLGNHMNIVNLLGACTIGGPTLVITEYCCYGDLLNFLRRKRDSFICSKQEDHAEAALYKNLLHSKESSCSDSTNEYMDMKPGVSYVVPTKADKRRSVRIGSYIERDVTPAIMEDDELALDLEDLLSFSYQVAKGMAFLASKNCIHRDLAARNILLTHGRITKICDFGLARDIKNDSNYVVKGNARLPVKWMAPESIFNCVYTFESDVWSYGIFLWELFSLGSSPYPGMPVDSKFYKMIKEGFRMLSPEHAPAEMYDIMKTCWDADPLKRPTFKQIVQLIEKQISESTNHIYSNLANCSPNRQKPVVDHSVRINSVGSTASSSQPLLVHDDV
Sequence of p56Lck (P06239 whole entry, species assumed): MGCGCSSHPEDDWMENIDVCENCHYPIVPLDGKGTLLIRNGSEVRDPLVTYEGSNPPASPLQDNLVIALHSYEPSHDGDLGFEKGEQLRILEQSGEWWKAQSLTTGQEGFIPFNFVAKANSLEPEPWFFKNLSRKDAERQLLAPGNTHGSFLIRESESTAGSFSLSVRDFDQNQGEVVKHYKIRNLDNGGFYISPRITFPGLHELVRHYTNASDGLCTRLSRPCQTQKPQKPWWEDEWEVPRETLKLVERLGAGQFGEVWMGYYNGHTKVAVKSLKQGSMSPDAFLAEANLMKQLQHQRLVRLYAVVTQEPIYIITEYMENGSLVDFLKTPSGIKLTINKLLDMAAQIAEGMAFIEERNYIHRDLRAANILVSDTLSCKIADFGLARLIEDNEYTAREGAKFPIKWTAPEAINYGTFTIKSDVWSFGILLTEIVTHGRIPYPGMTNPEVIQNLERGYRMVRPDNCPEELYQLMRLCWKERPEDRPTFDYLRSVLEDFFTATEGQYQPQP
Sequence of EGFR (P00533 25-1210, species assumed): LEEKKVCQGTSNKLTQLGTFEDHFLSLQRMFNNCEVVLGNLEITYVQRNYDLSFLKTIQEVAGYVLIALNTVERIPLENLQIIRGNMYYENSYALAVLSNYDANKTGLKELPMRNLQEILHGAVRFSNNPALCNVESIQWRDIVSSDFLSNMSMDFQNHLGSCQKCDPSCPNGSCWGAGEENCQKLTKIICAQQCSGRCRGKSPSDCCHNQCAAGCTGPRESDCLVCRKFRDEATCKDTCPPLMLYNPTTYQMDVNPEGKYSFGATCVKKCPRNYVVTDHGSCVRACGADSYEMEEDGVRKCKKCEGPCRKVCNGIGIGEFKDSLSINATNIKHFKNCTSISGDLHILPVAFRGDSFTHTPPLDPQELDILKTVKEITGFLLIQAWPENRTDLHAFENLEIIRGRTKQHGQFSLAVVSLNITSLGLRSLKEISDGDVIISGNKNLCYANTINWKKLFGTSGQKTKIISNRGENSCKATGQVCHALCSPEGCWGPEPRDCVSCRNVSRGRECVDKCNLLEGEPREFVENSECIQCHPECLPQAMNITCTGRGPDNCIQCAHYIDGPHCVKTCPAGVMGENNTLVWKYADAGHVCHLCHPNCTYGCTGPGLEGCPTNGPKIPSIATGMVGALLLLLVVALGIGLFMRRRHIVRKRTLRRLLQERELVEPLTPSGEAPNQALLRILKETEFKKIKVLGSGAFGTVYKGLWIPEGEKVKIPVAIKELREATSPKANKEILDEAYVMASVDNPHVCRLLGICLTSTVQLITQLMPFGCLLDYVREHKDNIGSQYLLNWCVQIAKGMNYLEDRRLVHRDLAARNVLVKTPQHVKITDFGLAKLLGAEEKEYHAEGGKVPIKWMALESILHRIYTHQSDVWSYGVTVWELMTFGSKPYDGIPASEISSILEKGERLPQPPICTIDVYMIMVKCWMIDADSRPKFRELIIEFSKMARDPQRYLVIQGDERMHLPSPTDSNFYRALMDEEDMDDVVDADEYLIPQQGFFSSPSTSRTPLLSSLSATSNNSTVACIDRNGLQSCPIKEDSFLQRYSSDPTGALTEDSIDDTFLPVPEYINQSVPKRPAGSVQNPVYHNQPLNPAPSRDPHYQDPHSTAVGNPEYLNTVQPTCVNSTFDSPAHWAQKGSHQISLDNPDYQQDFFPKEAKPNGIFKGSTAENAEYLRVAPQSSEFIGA
Sequence of Abl (P00519 whole entry, species assumed): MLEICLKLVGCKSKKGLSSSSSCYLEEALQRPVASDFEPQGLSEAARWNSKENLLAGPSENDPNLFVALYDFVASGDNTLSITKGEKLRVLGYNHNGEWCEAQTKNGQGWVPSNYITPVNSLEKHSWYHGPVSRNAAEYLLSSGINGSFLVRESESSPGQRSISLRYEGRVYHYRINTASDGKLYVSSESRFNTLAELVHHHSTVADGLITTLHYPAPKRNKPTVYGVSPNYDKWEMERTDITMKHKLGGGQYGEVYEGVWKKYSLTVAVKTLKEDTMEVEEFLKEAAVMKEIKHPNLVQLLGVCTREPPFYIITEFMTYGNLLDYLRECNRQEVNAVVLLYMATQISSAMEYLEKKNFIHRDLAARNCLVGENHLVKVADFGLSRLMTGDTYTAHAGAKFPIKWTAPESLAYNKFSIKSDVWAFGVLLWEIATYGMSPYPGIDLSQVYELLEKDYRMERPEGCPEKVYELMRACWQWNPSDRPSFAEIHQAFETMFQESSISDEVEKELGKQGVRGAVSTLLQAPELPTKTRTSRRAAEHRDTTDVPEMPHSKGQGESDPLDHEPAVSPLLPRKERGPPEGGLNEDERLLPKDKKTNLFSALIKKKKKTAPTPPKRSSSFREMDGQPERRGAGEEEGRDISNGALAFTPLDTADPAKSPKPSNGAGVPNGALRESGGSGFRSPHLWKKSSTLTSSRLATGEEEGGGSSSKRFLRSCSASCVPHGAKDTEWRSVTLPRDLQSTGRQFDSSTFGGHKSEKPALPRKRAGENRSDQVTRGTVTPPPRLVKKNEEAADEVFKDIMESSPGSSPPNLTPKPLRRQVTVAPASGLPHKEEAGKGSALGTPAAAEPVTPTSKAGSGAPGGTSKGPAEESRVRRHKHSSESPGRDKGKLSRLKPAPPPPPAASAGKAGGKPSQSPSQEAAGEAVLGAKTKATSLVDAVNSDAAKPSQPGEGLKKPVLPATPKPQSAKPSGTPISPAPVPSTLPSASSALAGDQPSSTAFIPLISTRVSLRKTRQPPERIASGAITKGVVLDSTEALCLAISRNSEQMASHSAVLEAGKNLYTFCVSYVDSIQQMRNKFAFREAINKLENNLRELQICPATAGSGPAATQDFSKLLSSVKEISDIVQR
Sequence of RICK (O43353 whole entry, species assumed): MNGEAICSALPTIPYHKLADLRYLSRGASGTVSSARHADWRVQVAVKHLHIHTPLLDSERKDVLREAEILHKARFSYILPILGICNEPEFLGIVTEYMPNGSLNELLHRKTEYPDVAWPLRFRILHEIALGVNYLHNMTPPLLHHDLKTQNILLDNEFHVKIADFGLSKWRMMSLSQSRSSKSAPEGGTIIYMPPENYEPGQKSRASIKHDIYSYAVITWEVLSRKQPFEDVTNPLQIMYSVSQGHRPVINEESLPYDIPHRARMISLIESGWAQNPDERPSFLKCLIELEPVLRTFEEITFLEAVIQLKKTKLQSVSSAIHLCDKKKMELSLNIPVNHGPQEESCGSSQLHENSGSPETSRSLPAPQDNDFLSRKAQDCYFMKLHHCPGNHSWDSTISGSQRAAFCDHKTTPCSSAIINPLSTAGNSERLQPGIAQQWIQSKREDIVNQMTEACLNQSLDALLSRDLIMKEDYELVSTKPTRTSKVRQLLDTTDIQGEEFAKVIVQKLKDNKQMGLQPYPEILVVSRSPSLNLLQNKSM

Structure (SMILES)	Inhibitory effect on target EGFR [1]	inhibition at 10 µM [2] [%]	inhibition at 10 µM [3] [%]	inhibition at 10 µM [4] [%]	Inhibitory effect on target PDGFR [5]	Inhibitory effect on target RICK [6]	Inhibitory effect on target p56Lck [4]
Oc1cccc(CNc2cncc(-c3cccnc3)c2)c1 [Compound 159, 3-([3,3′]Bipyridinyl-5-ylaminomethyl)-phenol]	A (A: 50-90% inhibition at 10 μM enzyme concentration)	50 to 90	50 to 90	50 to 90	A (A: 50-90% inhibition at 10 μM enzyme concentration)	C (C: IC50 measured: <1 μM)	
CC(=O)Nc1cccc(-c2cncc(Nc3ccccc3)c2)c1 [Compound 194, N-[3-(5-Phenylamino-pyridin-3-yl)-phenyl]-acetamide]		50 to 90			A (A: 50-90% inhibition at 10 μM enzyme concentration)	C (C: IC50 measured: <1 μM)	
CS(=O)(=O)c1ccc(-c2cncc(NCc3cccc(O)c3)c2)cc1 [Compound 206, 3-{[5-(4-Methanesulfonyl-phenyl)-pyridin-3-ylamino]-methyl}-phenol]		50 to 90		50 to 90		C (C: IC50 measured: <1 μM)	
COc1ccc(-c2cncc(NCc3cccc(O)c3)c2)cn1 [Compound 207, S—K6′-Methoxy-fS.S′lbipyridinyl-δ-ylaminoJ-mθthyll-phenol]						C (C: IC50 measured: <1 μM)	A (A: 50-90% inhibition at 10 μM enzyme concentration)
O=C(NCCO)c1cccc(-c2cncc(NCc3cccc(O)c3)c2)c1 [Compound 217, 3-[5-(3-Hydroxy-benzylamino)-pyridin-3-yl]-N-(2-hydroxy-ethyl)-benzamide]	A (A: 50-90% inhibition at 10 μM enzyme concentration)	> 90	50 to 90	> 90	A (A: 50-90% inhibition at 10 μM enzyme concentration)	C (C: IC50 measured: <1 μM)	
Oc1cccc(CNc2cncc(-c3ccc(N4CCOCC4)cc3)c2)c1 [Compound 218, 3-{[5-(4-Morpholin-4-yl-phenyl)-pyridin-3-ylamino]-methyl}-phenol]	A (A: 50-90% inhibition at 10 μM enzyme concentration)	> 90		50 to 90	A (A: 50-90% inhibition at 10 μM enzyme concentration)	C (C: IC50 measured: <1 μM)	
COc1cncc(-c2cncc(NCc3cccc(O)c3)c2)c1 [Compound 222, 3-[(5′-Methoxy-[3,3′]bipyridinyl-5-ylamino)-methyl]-phenol]		50 to 90	50 to 90	50 to 90	A (A: 50-90% inhibition at 10 μM enzyme concentration)	C (C: IC50 measured: <1 μM)	
COc1ccc(Nc2cncc(-c3cccc(NC(C)=O)c3)c2)cc1 [Compound 227, N-{3-[5-(4-Methoxy-phenylamino)-pyridin-3-yl]-phenyl}-acetamide]		50 to 90			A (A: 50-90% inhibition at 10 μM enzyme concentration)	C (C: IC50 measured: <1 μM)	
Oc1cccc(CNc2cncc(-c3ccsc3)c2)c1 [Compound 228, 3-[(5-Thiophen-3-yl-pyridin-3-ylamino)-methyl]-phenol]		50 to 90			A (A: 50-90% inhibition at 10 μM enzyme concentration)	C (C: IC50 measured: <1 μM)	
